Data published in patent US20260297060A1, “COMPOUNDS FOR THE DEGRADATION OF MUTANT BRAF” (C4 THERAPEUTICS, INC., priority 2023, published 2026).
Where two headings read alike, the source gives them in different places.

Legend:
A375-NRAS^Q61K cells = assay: CTGlo Cell Viability Assay, A375-NRAS^Q61K (A375.11) cells, 96 hours; format: cell-based, human; details: A375.11 (A375-NRAS^Q61K) cells; for CTGlo A375.11 96 hours Emax / Emax: lowest % viability achieved
Experimental: Compounds of this invention were tested for their effect on the viability of A375-NRAS^Q61K cells by quantification of ATP using the CellTiter-Glo® 2.0 Cell Viability Assay (Catalog No. G9243, Promega, Madison, WI, USA). This assay produces a luminescent signal in the presence of ATP, which is indicative of metabolically active cells, making the luminescence readout proportional to the number of viable cells.
A375-NRAS^Q61K cells (harboring BRAF homozygous V600E mutation and NRAS homozygous Q61K mutation) were purchased from ATCC (Catalog No. CRL-1619IG-2, Manassas, VA, USA). A375-NRAS^Q61K cells (also referred to here as A375.11) were maintained at 37° C. in an atmosphere of 5% CO2 in Dulbecco's modified Eagle Medium (DMEM) with high glucose (Catalog No. 11965092), supplemented with 10% fetal bovine serum (FBS; Catalog No. 10437036), and 10 mM HEPES (Catalog No. 15630130), all obtained from Thermofisher Scientific (Waltham, MA, USA). Cell culture flasks and 384-well microplates were acquired from VWR (Radnor, PA, USA).
Test compounds were prepared by dissolving neat compounds in DMSO (Catalog No. D8418, Sigma-Aldrich, Inc., St. Louis, MO, USA) to generate 10 mM stock solutions, which were serially diluted (half log) in DMSO to generate an 11-point dose series (1000× final treatment concentration) in a 384-Well Low Dead Volume Microplate (Catalog No. LP-0200, Labcyte, San Jose, CA, USA). Using the Echo 550 Acoustic Liquid Handler (Labcyte), 50 nL of serially diluted compound solutions were dispensed in duplicate to 384-well TC-treated microplates (Catalog No. 3571, Corning, Glendale, CA, USA) and 50 nL of DMSO was dispensed to control wells. A375-NRAS^Q61K cells were resuspended in growth media and added to 384-well plates containing a […] of compounds in duplicate (maximum 10 μM concentration for final treatment) at a density of 250 cells/well in 50 μl. Cells were also plated to a 384-well plate with no compound treatment, to which CellTiter-Glo® reagent was added and luminescence was read right after plating to act as a baseline signal at time of plating (To). Plates treated with compound were then spun briefly, and cells were incubated with compound at 37° C. for 96 hours.
After 96 hours compound treatment, CellTiter-Glo® reagent was added to the cells at 25 μl per well and luminescence was read out on the PHERAstar plate reader (BMG Labtech, Ortenberg, Germany). Cells treated with DMSO only (no test compound treatment) were used as the negative control (N). DMSO treated cells with no CellTiter-Glo® reagent added were used as the background or positive control (P). Viability was determined by subtracting out the average background signal (P) and normalized to the average untreated signal (N) set at 100%.
Data were analyzed with a 4-parameter logistic fit to generate sigmoidal dose-response curves. The half-maximal inhibition of cell growth (GI50) is the concentration at which the fitted curve crosses 50%. The Emax, or maximum effect of each compound, represents the lowest % viability achieved following compound treatment.

BRAF V600E = biological target: T1, BRAF V600E (Homo sapiens, UniProt P15056+Q96SW2, V600E); assay: BRAF V600E HiBiT Degradation Assay; format: cell-based; details: A375.10 cells, BRAF V600E, 2 hours; for HiBiT-Degradation A375.10 BRAF 2 hours Emax / Emax: residual protein remaining; for Emax: read-out: HiBiT-Degradation A375.10 BRAF 2 hours Emax
T1 construct: knock-in of the HiBiT tag to the endogenous BRAF V600E locus; host or cells: A375.10 (A375 clonal line, CRISPR HiBiT knock-in at the endogenous BRAF V600E locus)
Experimental: Compounds of this invention were tested for degradation of mutant BRAF V600E using the HiBiT assay, a luminescence-based assay for quantification of cellular protein levels using the Nano-Glo® HiBiT Lytic Detection System (Catalog No. N3050, Promega, Madison, WI USA). This assay utilizes the HiBiT tag on a protein of interest, which creates a luminescent signal in the presence of a complementing peptide and its substrate, the quantification of which is proportional to the amount of HiBiT-tagged protein in the cell.
The cell line A375, which is homozygous for the BRAF V600E mutation, was purchased from ATCC (Catalog No. CRL-1619, Manassas, VA, USA). A375 cells were engineered to express HiBiT tagged BRAF V600E by CRISPR knock-in of the HiBiT tag to the endogenous BRAF V600E locus, followed by selection of a clonal population containing the appropriate knock-in (referred to here as cell line A375.10). A375.10 cells were maintained at 37° C. in an atmosphere of 5% CO2 in Dulbecco's modified Eagle Medium (DMEM) with high glucose (Catalog No. 11965092), supplemented with 10% fetal bovine serum (FBS; Catalog No. 10437036), and 10 mM HEPES (Catalog No. 15630130), all obtained from Thermofisher Scientific (Waltham, MA, USA). Cell culture flasks and 384-well microplates were acquired from VWR (Radnor, PA, USA).
Test compounds were prepared by dissolving neat compounds in DMSO (Catalog No. D8418, Sigma-Aldrich, Inc., St. Louis, MO, USA) to generate 10 mM stock solutions, which were serially diluted (half log) in DMSO to generate an 11-point dose series (1000× final treatment concentration) in a 384-Well Low Dead Volume Microplate (Catalog No. LP-0200, Labcyte, San Jose, CA, USA). Using the Echo 550 Acoustic Liquid Handler (Labcyte), 30 nL of serially diluted compound solutions were dispensed in duplicate to 384-well TC-treated microplates (Catalog No. 3571, Corning, Glendale, CA, USA) and 30 nL of DMSO was dispensed to control wells. A375.10 cells resuspended in growth media without phenol red (Catalog No. 21063-029, Thermofisher Scientific) were then added to 384-well plates containing the 11-point dose series of compounds in duplicate (maximum 10 μM concentration for final treatment) at a density of 12,000 cells/well in 30 μl. Plates were then spun briefly, and cells were incubated with compound at 37° C. for 2 hours, 6 hours, or 24 hours.
Following the appropriate treatment time, Nano-Glo® HiBiT Lytic Assay reagents were added to the cells per the manufacturer's instructions by adding 30 μl of reagent per well, and the luminescence signal was acquired by plate reader. Cells treated with DMSO only (no test compound treatment) were used as the negative control (N). Media only (no cells added) with Nano-Glo reagent addition was used as the background or positive control (P). The percent response of compound treated samples were calculated by subtracting out the background signal (P) and normalizing to the DMSO control (N) as follows.
% Response=100×(Treated Signal−Average (P))/(Average (N)−Average (P)).
Data were analyzed with a 4-parameter logistic fit to generate sigmoidal dose-response curves. The DC50 is the concentration of compound at which 50% of the cellular BRAF V600E has been degraded. The Emax, or maximum effect of each compound, represents the amount of residual protein remaining in the cell following compound treatment. The IP, or inflection point of the dose-response curve, is the concentration of compound at which 50% of the observed degradation response is achieved.
The experiment was conducted at least once for each compound. If the experiment was conducted multiple times, the data shown in the table is the average of the two or more experiments.

[1] = inflection point, read-out: HiBiT-Degradation A375.10 BRAF 2 hours IP
[2] = read-out: HiBiT-Degradation A375.10 BRAF 2 hours DC50

T1 sequence (P15056 whole entry V600E): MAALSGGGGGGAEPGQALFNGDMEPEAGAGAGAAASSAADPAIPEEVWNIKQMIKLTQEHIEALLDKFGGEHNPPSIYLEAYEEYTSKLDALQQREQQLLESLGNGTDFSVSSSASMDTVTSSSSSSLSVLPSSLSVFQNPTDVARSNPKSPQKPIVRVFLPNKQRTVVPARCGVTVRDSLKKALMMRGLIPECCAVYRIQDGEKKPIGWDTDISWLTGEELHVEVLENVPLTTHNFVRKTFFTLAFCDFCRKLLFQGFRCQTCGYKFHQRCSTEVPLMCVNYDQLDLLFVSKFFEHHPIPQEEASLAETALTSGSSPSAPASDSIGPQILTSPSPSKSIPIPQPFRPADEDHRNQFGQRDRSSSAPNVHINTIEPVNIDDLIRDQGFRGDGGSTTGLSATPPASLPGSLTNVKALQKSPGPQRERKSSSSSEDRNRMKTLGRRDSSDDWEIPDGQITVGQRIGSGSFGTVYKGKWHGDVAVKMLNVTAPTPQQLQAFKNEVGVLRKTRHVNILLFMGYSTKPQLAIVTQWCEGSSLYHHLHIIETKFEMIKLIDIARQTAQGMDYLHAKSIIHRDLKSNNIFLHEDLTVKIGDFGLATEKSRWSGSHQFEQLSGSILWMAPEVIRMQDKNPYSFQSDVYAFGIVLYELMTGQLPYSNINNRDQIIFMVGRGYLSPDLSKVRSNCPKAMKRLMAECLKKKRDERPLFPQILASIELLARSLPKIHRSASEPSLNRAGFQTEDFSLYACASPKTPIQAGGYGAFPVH
T1 sequence (Q96SW2 whole entry): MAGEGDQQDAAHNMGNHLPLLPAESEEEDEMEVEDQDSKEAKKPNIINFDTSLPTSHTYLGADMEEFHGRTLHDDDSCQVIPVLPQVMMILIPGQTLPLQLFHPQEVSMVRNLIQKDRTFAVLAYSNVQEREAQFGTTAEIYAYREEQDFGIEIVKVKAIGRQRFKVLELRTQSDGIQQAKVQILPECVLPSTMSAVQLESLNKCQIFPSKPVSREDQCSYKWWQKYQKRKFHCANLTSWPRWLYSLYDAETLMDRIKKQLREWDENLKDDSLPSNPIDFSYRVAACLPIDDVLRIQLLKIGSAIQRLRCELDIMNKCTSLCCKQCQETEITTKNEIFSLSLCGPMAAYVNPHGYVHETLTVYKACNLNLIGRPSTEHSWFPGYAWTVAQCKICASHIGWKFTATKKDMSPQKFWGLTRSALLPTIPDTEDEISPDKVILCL
T1 sequence (Q16531 whole entry partner): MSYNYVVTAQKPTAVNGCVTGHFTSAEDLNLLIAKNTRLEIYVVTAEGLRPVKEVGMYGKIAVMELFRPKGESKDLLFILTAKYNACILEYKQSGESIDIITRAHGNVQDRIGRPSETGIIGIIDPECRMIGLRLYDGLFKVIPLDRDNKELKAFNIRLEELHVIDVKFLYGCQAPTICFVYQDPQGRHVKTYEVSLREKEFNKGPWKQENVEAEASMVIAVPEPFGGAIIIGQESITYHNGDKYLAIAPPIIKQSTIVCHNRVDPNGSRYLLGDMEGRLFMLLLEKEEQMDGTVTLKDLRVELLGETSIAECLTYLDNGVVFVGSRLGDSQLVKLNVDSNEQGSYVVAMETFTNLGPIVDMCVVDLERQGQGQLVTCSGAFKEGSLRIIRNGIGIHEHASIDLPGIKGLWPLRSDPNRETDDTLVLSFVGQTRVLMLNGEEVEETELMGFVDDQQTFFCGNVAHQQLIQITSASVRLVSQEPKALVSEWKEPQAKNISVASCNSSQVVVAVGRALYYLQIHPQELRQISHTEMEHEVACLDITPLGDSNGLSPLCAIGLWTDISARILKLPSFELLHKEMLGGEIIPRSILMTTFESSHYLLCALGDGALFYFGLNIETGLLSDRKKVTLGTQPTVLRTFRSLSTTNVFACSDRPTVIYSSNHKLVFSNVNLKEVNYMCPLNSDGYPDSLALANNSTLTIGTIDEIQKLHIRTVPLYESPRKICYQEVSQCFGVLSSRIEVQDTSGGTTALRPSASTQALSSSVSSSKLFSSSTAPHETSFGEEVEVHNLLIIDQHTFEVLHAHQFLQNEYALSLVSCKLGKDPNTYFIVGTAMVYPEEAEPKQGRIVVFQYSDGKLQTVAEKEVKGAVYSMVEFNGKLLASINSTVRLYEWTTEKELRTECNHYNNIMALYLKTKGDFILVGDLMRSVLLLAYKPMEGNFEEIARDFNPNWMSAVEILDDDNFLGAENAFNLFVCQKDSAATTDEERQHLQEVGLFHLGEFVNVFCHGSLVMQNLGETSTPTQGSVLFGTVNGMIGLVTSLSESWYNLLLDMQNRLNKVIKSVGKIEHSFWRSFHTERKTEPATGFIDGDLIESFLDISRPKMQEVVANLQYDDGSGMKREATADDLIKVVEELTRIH

| GI50 (A375-NRAS^Q61K cells) [nM] | DC50 (BRAF V600E; [1]) [nM] | DC50 (BRAF V600E; [2]) [nM] | HiBiT-Degradation A375.10 BRAF 2 hours Emax (BRAF V600E) | GI50 (A375-NRAS^Q61K cells; Homo sapiens, 96 h) [nM] | Emax (BRAF V600E) [%] | SMILES | CTGlo A375.11 96 hours Emax (A375-NRAS^Q61K cells) | Emax (A375-NRAS^Q61K cells; Homo sapiens, 96 h) [%] |
| --- | --- | --- | --- | --- | --- | --- | --- | --- |
| > 10000 | < 1000 | < 1000 | *** (<=50%) |  |  | CCN(C)S(=O)(=O)Nc1ccc(F)c(Oc2ccc3ncn(C4CCC5(CC4)CCN(C4CCC(c6cc7c(cc6F)c(N6CCC(=O)NC6=O)nn7C)CC4)CC5)c(=O)c3c2)c1C#N (single isomer, unassigned) [Compound 13, 9-[6-[2-cyano-3-[[ethyl(methyl)sulfamoyl]amino]-6-fluoro-phenoxy]-4-oxo-quinazolin-3-yl]-3-[4-[3-(2,4-dioxohexahydropyriimidin-1-yl)-5-fluoro-1-methyl-indazol-6-yl]cyclohexyl]-3-azaspiro[5.5]undecane] | ** (<90% and >50%) |  |
|  | < 1000 | < 1000 |  | > 10000 | 50 to 90 | CCN(C)S(=O)(=O)Nc1ccc(F)c(Oc2ccc3ncn([C@H]4C[C@@H]5CN(C6CCC(c7cc8c(cc7F)c(N7CCC(=O)NC7=O)nn8C)CC6)C[C@@H]5C4)c(=O)c3c2)c1C#N (single isomer, unassigned) [Compound 15] |  | 50 to 90 |
| 1000 to 10000 | < 1000 | < 1000 |  |  | 50 to 90 | CCN(C)S(=O)(=O)Nc1ccc(F)c(Oc2ccc3ncn([C@@H]4C[C@@H]5CN(C6CCC(c7cc8c(cc7F)c(N7CCC(=O)NC7=O)nn8C)CC6)C[C@@H]5C4)c(=O)c3c2)c1C#N (single isomer, unassigned) [Compound 16] |  | < 50 |
| > 10000 | < 1000 | < 1000 | ** (<90% and >50%) |  |  | CCN(C)S(=O)(=O)Nc1ccc(F)c(Oc2ccc3ncn([C@@H]4C[C@@H]5CN(C6CCC(c7cc8c(cc7F)c(N7CCC(=O)NC7=O)nn8C)CC6)C[C@@H]5C4)c(=O)c3c2)c1C#N (single isomer, unassigned) [Compound 17] | ** (<90% and >50%) |  |
